From US10689381B2 (priority 2017, dated 2020)
Like-named read-outs stand apart in the source and are kept apart here.

Tests used:
L1210 = assay: cells; format: cell-based, mouse
In short: (§1)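 Compound exposure ran 72 h at six concentrations (0–1000 nM or 0–10000 nM, duplicate) on cells plated at 30,000 cells/mL in 10% FBS DMEM. A closing 37 °C incubation took 15 min (HCT116) or 5 min (L1210).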

HCT116 = assay: cells; format: cell-based, human; conditions: for IC50: read-out: IC50 HCT116; for potency relative to vinblastine (more potent): vinblastine-sensitive cell lines
In short: as §1

SMILES: CC[C@]1(NC(=O)c2cocn2)C[C@H]2CN(CCc3c([nH]c4ccccc34)[C@@](C(=O)OC)(c3cc4c(cc3OC)N(C)[C@H]3[C@@](O)(C(=O)OC)[C@H](OC(C)=O)[C@]5(CC)C=CCN6CC[C@]43[C@@H]65)C2)C1 [Compound 137]
- IC50 (L1210; Table 5): 4.5 nM
- IC50 (HCT116; Table 5): 4 nM

SMILES: CC[C@]1(NS(=O)(=O)c2ccc3ccccc3c2)C[C@H]2CN(CCc3c([nH]c4ccccc34)[C@@](C(=O)OC)(c3cc4c(cc3OC)N(C)[C@H]3[C@@](O)(C(=O)OC)[C@H](OC(C)=O)[C@]5(CC)C=CCN6CC[C@]43[C@@H]65)C2)C1 [Compound 185]
- IC50 (L1210; Table 7, C20′ sulfonamides): 50 nM
- IC50 (HCT116; Table 7, C20′ sulfonamides): 60 nM

SMILES: CC[C@]1(NC(=O)c2ccc(OC)c(F)c2)C[C@H]2CN(CCc3c([nH]c4ccccc34)[C@@](C(=O)OC)(c3cc4c(cc3OC)N(C)[C@H]3[C@@](O)(C(=O)OC)[C@H](OC(C)=O)[C@]5(CC)C=CCN6CC[C@]43[C@@H]65)C2)C1 [Compound 90]
- IC50 (L1210; Table 2): 0.6 nM
- IC50 (HCT116; Table 2): 0.6 nM

SMILES: CC[C@]1(NC(=O)c2ccc(CNC(=O)OC(C)(C)C)cc2)C[C@H]2CN(CCc3c([nH]c4ccccc34)[C@@](C(=O)OC)(c3cc4c(cc3OC)N(C)[C@H]3[C@@](O)(C(=O)OC)[C@H](OC(C)=O)[C@]5(CC)C=CCN6CC[C@]43[C@@H]65)C2)C1 [Compound 66]
- IC50 (L1210; Table 2): 0.76 nM
- IC50 (HCT116; Table 2): 0.7 nM

SMILES: CCC1(NC(=O)c2ccccn2)CC2CN(CCc3c([nH]c4ccccc34)C(C(=O)OC)(c3cc4c(cc3OC)N(C)C3C(O)(C(=O)OC)C(OC(C)=O)C5(CC)C=CCN6CCC43C65)C2)C1 (stereo not shown) [Compound 130]
- IC50 (L1210; Table 5): 55 nM
- IC50 (HCT116; Table 5): 50 nM

SMILES: CCC1(NC(=O)c2ccc3ocnc3c2)CC2CN(CCc3c([nH]c4ccccc34)C(C(=O)OC)(c3cc4c(cc3OC)N(C)C3C(O)(C(=O)OC)C(OC(C)=O)C5(CC)C=CCN6CCC43C65)C2)C1 (stereo not shown) [Compound 168]
- IC50 (L1210; Table 6): 5.4 nM
- IC50 (HCT116; Table 6): 5.1 nM

SMILES: CC[C@]1(NC(=O)c2ccnnc2)C[C@H]2CN(CCc3c([nH]c4ccccc34)[C@@](C(=O)OC)(c3cc4c(cc3OC)N(C)[C@H]3[C@@](O)(C(=O)OC)[C@H](OC(C)=O)[C@]5(CC)C=CCN6CC[C@]43[C@@H]65)C2)C1 [Compound 132]
- IC50 (L1210; Table 5): 30 nM
- IC50 (HCT116; Table 5): 9 nM

SMILES: CCOc1ccc(C(=O)NC2(CC)CC3CN(CCc4c([nH]c5ccccc45)C(C(=O)OC)(c4cc5c(cc4OC)N(C)C4C(O)(C(=O)OC)C(OC(C)=O)C6(CC)C=CCN7CCC54C76)C3)C2)cc1OCC (stereo not shown) [Compound 73]
- IC50 (L1210; Table 2): 0.4 nM
- IC50 (HCT116; Table 2): 0.5 nM

SMILES: CC[C@]1(NC(=O)c2ccc3c(c2)CCN3C(=O)OC(C)(C)C)C[C@H]2CN(CCc3c([nH]c4ccccc34)[C@@](C(=O)OC)(c3cc4c(cc3OC)N(C)[C@H]3[C@@](O)(C(=O)OC)[C@H](OC(C)=O)[C@]5(CC)C=CCN6CC[C@]43[C@@H]65)C2)C1 [Compound 178]
- IC50 (L1210; Table 6): 35 nM
- IC50 (HCT116; Table 6): 15 nM

SMILES: CC[C@]1(NC(=O)c2ccc3nccnc3c2)C[C@H]2CN(CCc3c([nH]c4ccccc34)[C@@](C(=O)OC)(c3cc4c(cc3OC)N(C)[C@H]3[C@@](O)(C(=O)OC)[C@H](OC(C)=O)[C@]5(CC)C=CCN6CC[C@]43[C@@H]65)C2)C1 [Compound 155]
- IC50 (L1210; Table 6): 0.6 nM
- IC50 (HCT116; Table 6): 0.6 nM

SMILES: CCC1(NC(=O)c2ccc3cccnc3c2)CC2CN(CCc3c([nH]c4ccccc34)C(C(=O)OC)(c3cc4c(cc3OC)N(C)C3C(O)(C(=O)OC)C(OC(C)=O)C5(CC)C=CCN6CCC43C65)C2)C1 (stereo not shown) [Compound 149]
- IC50 (L1210; Table 6): 0.6 nM
- IC50 (HCT116; Table 6): 0.7 nM

SMILES: CC[C@]1(NC(=O)/C=C/c2ccoc2)C[C@H]2CN(CCc3c([nH]c4ccccc34)[C@@](C(=O)OC)(c3cc4c(cc3OC)N(C)[C@H]3[C@@](O)(C(=O)OC)[C@H](OC(C)=O)[C@]5(CC)C=CCN6CC[C@]43[C@@H]65)C2)C1 [Compound 112]
- IC50 (L1210; Table 3): 0.7 nM
- IC50 (HCT116; Table 3): 0.7 nM

SMILES: CCC1(NC(=O)c2cnc3ccccc3n2)CC2CN(CCc3c([nH]c4ccccc34)C(C(=O)OC)(c3cc4c(cc3OC)N(C)C3C(O)(C(=O)OC)C(OC(C)=O)C5(CC)C=CCN6CCC43C65)C2)C1 (stereo not shown) [Compound 156]
- IC50 (L1210; Table 6): 6.2 nM
- IC50 (HCT116; Table 6): 5.9 nM

SMILES: CCC1(NC(=O)c2ccc3ccncc3c2)CC2CN(CCc3c([nH]c4ccccc34)C(C(=O)OC)(c3cc4c(cc3OC)N(C)C3C(O)(C(=O)OC)C(OC(C)=O)C5(CC)C=CCN6CCC43C65)C2)C1 (stereo not shown) [Compound 153]
- IC50 (L1210; Table 6): 0.4 nM
- IC50 (HCT116; Table 6): 0.4 nM

SMILES: CCC1(NC(=O)c2ccc([N+](=O)[O-])cc2)CC2CN(CCc3c([nH]c4ccccc34)C(C(=O)OC)(c3cc4c(cc3OC)N(C)C3C(O)(C(=O)OC)C(OC(C)=O)C5(CC)C=CCN6CCC43C65)C2)C1 (stereo not shown) [Compound 56]
- IC50 (L1210; Table 2): 6.1 nM
- IC50 (HCT116; Table 2): 6.1 nM

SMILES: CCOc1ccc(C(=O)N[C@@]2(CC)C[C@H]3CN(CCc4c([nH]c5ccccc45)[C@@](C(=O)OC)(c4cc5c(cc4OC)N(C)[C@H]4[C@@](O)(C(=O)OC)[C@H](OC(C)=O)[C@]6(CC)C=CCN7CC[C@]54[C@@H]76)C3)C2)cc1Cl [Compound 94]
- IC50 (L1210; Table 2): 4.2 nM
- IC50 (HCT116; Table 2): 6.1 nM

SMILES: CC[C@]1(NC(=O)c2ccc(OC)cc2F)C[C@H]2CN(CCc3c([nH]c4ccccc34)[C@@](C(=O)OC)(c3cc4c(cc3OC)N(C)[C@H]3[C@@](O)(C(=O)OC)[C@H](OC(C)=O)[C@]5(CC)C=CCN6CC[C@]43[C@@H]65)C2)C1 [Compound 91]
- IC50 (L1210; Table 2): 6.2 nM
- IC50 (HCT116; Table 2): 6.4 nM

SMILES: CCC1(NC(=O)c2ccc3c(c2)OCO3)CC2CN(CCc3c([nH]c4ccccc34)C(C(=O)OC)(c3cc4c(cc3OC)N(C)C3C(O)(C(=O)OC)C(OC(C)=O)C5(CC)C=CCN6CCC43C65)C2)C1 (stereo not shown) [Compound 174]
- IC50 (L1210; Table 6): 0.6 nM
- IC50 (HCT116; Table 6): 0.8 nM

SMILES: CCC1(NC(=O)c2ccc(C(F)(F)F)cc2)CC2CN(CCc3c([nH]c4ccccc34)C(C(=O)OC)(c3cc4c(cc3OC)N(C)C3C(O)(C(=O)OC)C(OC(C)=O)C5(CC)C=CCN6CCC43C65)C2)C1 (stereo not shown) [Compound 39]
- IC50 (L1210; Table 2): 4.3 nM
- IC50 (HCT116; Table 2): 3.3 nM

SMILES: CC[C@]1(NC(=O)c2ccc(N)c(C)c2)C[C@H]2CN(CCc3c([nH]c4ccccc34)[C@@](C(=O)OC)(c3cc4c(cc3OC)N(C)[C@H]3[C@@](O)(C(=O)OC)[C@H](OC(C)=O)[C@]5(CC)C=CCN6CC[C@]43[C@@H]65)C2)C1 [Compound 104]
- IC50 (L1210; Table 2): 0.6 nM
- IC50 (HCT116; Table 2): 0.6 nM

SMILES: CCC1(NC(=O)c2ccc3cccc(OC)c3c2)CC2CN(CCc3c([nH]c4ccccc34)C(C(=O)OC)(c3cc4c(cc3OC)N(C)C3C(O)(C(=O)OC)C(OC(C)=O)C5(CC)C=CCN6CCC43C65)C2)C1 (stereo not shown) [Compound 120]
- IC50 (L1210; Table 4): 10 nM
- IC50 (HCT116; Table 4): 13 nM

SMILES: CC[C@]1(NC(=O)c2cccc(S(=O)(=O)F)c2)C[C@H]2CN(CCc3c([nH]c4ccccc34)[C@@](C(=O)OC)(c3cc4c(cc3OC)N(C)[C@H]3[C@@](O)(C(=O)OC)[C@H](OC(C)=O)[C@]5(CC)C=CCN6CC[C@]43[C@@H]65)C2)C1 [Compound 89]
- IC50 (L1210; Table 2): 40 nM
- IC50 (HCT116; Table 2): 30 nM

SMILES: CCC1(NC(=O)c2ccc(C)c(N)c2)CC2CN(CCc3c([nH]c4ccccc34)C(C(=O)OC)(c3cc4c(cc3OC)N(C)C3C(O)(C(=O)OC)C(OC(C)=O)C5(CC)C=CCN6CCC43C65)C2)C1 (stereo not shown) [Compound 101]
- IC50 (L1210; Table 2): 0.6 nM
- IC50 (HCT116; Table 2): 0.7 nM

SMILES: CC[C@]1(NC(=O)c2cccc(C)c2)C[C@H]2CN(CCc3c([nH]c4ccccc34)[C@@](C(=O)OC)(c3cc4c(cc3OC)N(C)[C@H]3[C@@](O)(C(=O)OC)[C@H](OC(C)=O)[C@]5(CC)C=CCN6CC[C@]43[C@@H]65)C2)C1 [Compound 26]
- IC50 (L1210; Table 2): 0.5 nM
- IC50 (HCT116; Table 2): 0.7 nM
- potency relative to vinblastine (more potent) (HCT116): 10 fold

SMILES: CC[C@]1(NC(=O)/C=C/c2ccco2)C[C@H]2CN(CCc3c([nH]c4ccccc34)[C@@](C(=O)OC)(c3cc4c(cc3OC)N(C)[C@H]3[C@@](O)(C(=O)OC)[C@H](OC(C)=O)[C@]5(CC)C=CCN6CC[C@]43[C@@H]65)C2)C1 [Compound 113]
- IC50 (L1210; Table 3): 1.3 nM
- IC50 (HCT116; Table 3): 1.3 nM

SMILES: CCC(=O)NC1(CC)CC2CN(CCc3c([nH]c4ccccc34)C(C(=O)OC)(c3cc4c(cc3OC)N(C)C3C(O)(C(=O)OC)C(OC(C)=O)C5(CC)C=CCN6CCC43C65)C2)C1 (stereo not shown) [Compound 12]
- IC50 (L1210; Table 1): 60 nM
- IC50 (HCT116; Table 1): 60 nM

SMILES: CC[C@]1(NC(=O)c2ccc(F)cc2)C[C@H]2CN(CCc3c([nH]c4ccccc34)[C@@](C(=O)OC)(c3cc4c(cc3OC)N(C)[C@H]3[C@@](O)(C(=O)OC)[C@H](OC(C)=O)[C@]5(CC)C=CCN6CC[C@]43[C@@H]65)C2)C1 [Compound 44]
- IC50 (L1210; Table 2): 1.8 nM
- IC50 (HCT116; Table 2): 1.4 nM

SMILES: CCC1(NC(=O)c2ccc(OC(C)C)cc2)CC2CN(CCc3c([nH]c4ccccc34)C(C(=O)OC)(c3cc4c(cc3OC)N(C)C3C(O)(C(=O)OC)C(OC(C)=O)C5(CC)C=CCN6CCC43C65)C2)C1 (stereo not shown) [Compound 74]
- IC50 (L1210; Table 2): 0.7 nM
- IC50 (HCT116; Table 2): 0.8 nM
- potency relative to vinblastine (more potent) (HCT116): 10 fold

SMILES: CCC1(NC(=O)c2ccc(S(=O)(=O)F)cc2)CC2CN(CCc3c([nH]c4ccccc34)C(C(=O)OC)(c3cc4c(cc3OC)N(C)C3C(O)(C(=O)OC)C(OC(C)=O)C5(CC)C=CCN6CCC43C65)C2)C1 (stereo not shown) [Compound 88]
- IC50 (L1210; Table 2): 20 nM
- IC50 (HCT116; Table 2): 30 nM

SMILES: CCC1(NC(=O)c2ccc3ccccc3c2)CC2CN(CCc3c([nH]c4ccccc34)C(C(=O)OC)(c3cc4c(cc3OC)N(C)C3C(O)(C(=O)OC)C(OC(C)=O)C5(CC)C=CCN6CCC43C65)C2)C1 (stereo not shown) [Compound 116]
- IC50 (L1210; Table 4): 1.9 nM
- IC50 (HCT116; Table 4): 2.3 nM
- potency relative to vinblastine (more potent) (HCT116): approximately 3 fold

SMILES: CC[C@]1(NC(=O)c2ccc(OC(C)(C)C)cc2)C[C@H]2CN(CCc3c([nH]c4ccccc34)[C@@](C(=O)OC)(c3cc4c(cc3OC)N(C)[C@H]3[C@@](O)(C(=O)OC)[C@H](OC(C)=O)[C@]5(CC)C=CCN6CC[C@]43[C@@H]65)C2)C1 [Compound 75]
- IC50 (L1210; Table 2): 0.6 nM
- IC50 (HCT116; Table 2): 0.6 nM

SMILES: CCC1(NC(=O)C2CCOCC2)CC2CN(CCc3c([nH]c4ccccc34)C(C(=O)OC)(c3cc4c(cc3OC)N(C)C3C(O)(C(=O)OC)C(OC(C)=O)C5(CC)C=CCN6CCC43C65)C2)C1 (stereo not shown) [Compound 144]
- IC50 (L1210; Table 5): 70 nM
- IC50 (HCT116; Table 5): 35 nM
